# Numbers after ± are expanded uncertainties.
# Conditions: Crystal; DTA
compound,measurement,value
Cn1c(=O)c2c(ncn2CC(O)CO)n(C)c1=O (stereo unspecified),Normal melting temperature,159.90 ± 1.1 °C

# Reference: the NIST ThermoML archive (doi:10.1016/j.jct.2019.06.007)
